Test results from US8809372B2, “Pyridine derivatives” (Endo Pharmaceuticals, Inc., priority 2011, dated 2014).

Key:
[1] = molecular target: T1, human CYP17 in H295R adrenocortical carcinoma cells (Homo sapiens, UniProt P05093); assay: Cell-based human CYP17 inhibition assay, H295R cells; details: 16 hours, read-out: CYP17 (human H295R adrenal cells)
T1 construct: H295R Adrenocortical carcinoma cells [NCI-H295A, ATCC Number CRL-2128, American Type Culture Collection; host or cells: H295R adrenocortical carcinoma cells
T1 sequence (P05093 1-508): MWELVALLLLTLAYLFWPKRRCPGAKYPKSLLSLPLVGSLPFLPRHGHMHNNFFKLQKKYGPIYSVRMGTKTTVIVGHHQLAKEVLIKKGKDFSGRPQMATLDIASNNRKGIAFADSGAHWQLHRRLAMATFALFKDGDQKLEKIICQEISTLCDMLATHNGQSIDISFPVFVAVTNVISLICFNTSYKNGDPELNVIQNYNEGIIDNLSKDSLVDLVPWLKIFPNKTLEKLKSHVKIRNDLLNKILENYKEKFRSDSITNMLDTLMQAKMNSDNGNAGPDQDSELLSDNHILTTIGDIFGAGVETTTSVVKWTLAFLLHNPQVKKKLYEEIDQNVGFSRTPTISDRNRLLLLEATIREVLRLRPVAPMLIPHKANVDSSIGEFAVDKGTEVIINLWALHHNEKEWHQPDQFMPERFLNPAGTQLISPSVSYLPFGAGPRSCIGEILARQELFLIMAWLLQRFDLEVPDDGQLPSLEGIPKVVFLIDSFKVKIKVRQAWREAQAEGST
Procedure: Cell-Based Human CYP17 Inhibition Assay
1. H295R Adrenocortical Carcinoma Cells and Growth Media: The media for the H295R Adrenocortical carcinoma cells [NCI-H295A, ATCC Number CRL-2128, American Type Culture Collection, Manassas, Va., US] (500 mL) was a DMEM:F12 Mix 1:1 with 5% (2 mL) BD Nu Serum; 1% (5 mL) ITS+Premix [BD Biosciences] and 1% Penstrep. 2. LNCap-CYP17 Cells and Growth Media: Full length hCYP17a1 gene (NCBI Reference Sequence: NM_000102.3) was cloned in pcDNA3.1(+) vector between HindIII and XhoI site. The pcDNA3.1(+) vector contains the Neomycin resistance gene and was used for selection of stable cell line. The hCYP17a1 containing pcDNA3.1(+) was transfected into LNCap cells to create the LNCap-CYP17 cell line. The media for the LNCaP-CYP17 cells was RPMI 1640, 10% FBS, 1% PenStrep, Geneticin 400 μg/mL.
The H295R cells or LNCaP-hCYP17 cells were subcultured and 30,000 cells per well were seeded in a poly-d lysine plate and incubated overnight at 37° C. The next day the media was removed and 200 μL of fresh media with ^3H3-17α-hydroxy-pregnenolone (1:1000) was added. 50 μL of serially diluted compounds from a 5× plate (5 times the final desired concentration) was added. The working concentration range for active, new compounds started from a high concentration of 10 μM with 3-fold serial dilutions generating up to 10 concentrations. The serial dilution in the 100× plate (in DMSO) and the stamping of a 5× plate (in media) from the 100× plate were carried out using a TECAN liquid handling device.
The plates were incubated overnight (16 hours) at 37° C. After 16 hours, the media was removed (approximately 220 μL) and an equal amount of chloroform was added, mixed and incubated for 30 minutes at 4 degrees. The plate was centrifuged at 4000 rpm for 15 minutes at 4° C., following which the top aqueous layer was carefully removed and added into a new deep well plate. An equal volume of activated 5% charcoal was added, mixed and incubated for 30 minutes at 4° C. The plate was then centrifuged at 4000 rpm for 15 minutes at 4° C. and the top layer carefully separated, avoiding any charcoal contamination, and placed in a white, clear bottom plate (plate cat #3610, Corning Life Sciences). An equal volume of Microscint™ 40 was added and mixed well. Following the incubation for 30 minutes, readings for the radiotracer were taken using a Microbeta® trilux.

[2] = molecular target: T2, rat CYP17 (rat testicular microsomes) (Rattus norvegicus, UniProt P11715); assay: CYP17 inhibition assay in rat testicular microsomes; type: biochemical
T2 construct: Rat testis tissue was collected and disrupted with 30 strokes of a glass homogenizer; from tissue; host or cells: rat testis (microsomes)
T2 sequence (P11715 1-507): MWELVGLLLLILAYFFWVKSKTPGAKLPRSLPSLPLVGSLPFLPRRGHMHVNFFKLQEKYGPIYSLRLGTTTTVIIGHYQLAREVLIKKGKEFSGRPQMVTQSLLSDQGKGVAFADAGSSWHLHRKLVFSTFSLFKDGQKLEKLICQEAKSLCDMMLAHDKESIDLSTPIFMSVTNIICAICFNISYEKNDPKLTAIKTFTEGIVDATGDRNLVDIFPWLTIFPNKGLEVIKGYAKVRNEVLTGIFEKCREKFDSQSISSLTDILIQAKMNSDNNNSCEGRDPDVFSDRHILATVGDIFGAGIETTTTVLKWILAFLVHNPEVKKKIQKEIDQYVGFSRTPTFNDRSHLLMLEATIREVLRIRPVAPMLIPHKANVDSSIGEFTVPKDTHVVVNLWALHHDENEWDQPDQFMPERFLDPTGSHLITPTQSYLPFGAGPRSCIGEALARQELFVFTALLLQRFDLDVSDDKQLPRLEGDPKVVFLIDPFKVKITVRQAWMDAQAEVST
Procedure: CYP17 Inhibition Assay in Rat Testicular Microsomes (Rat CYP17) or Yeast Microsome Overexpressing Human CYP17
1. NADPH (Sigma): A working stock was prepared by adding 25 μL of 6.5 mM NADPH in each tube. The final concentration of NADPH used in the assay was 325 μM.
2. Potassium Phosphate Buffer: One molar (1M) solutions of K2HPO4 and KH2PO4 were prepared. Eight mL of the 1 M KH2PO4 and 1.98 mL of the 1 M K2HPO4 were combined and the pH was adjusted to 7.4.
3. ^3H3-17α-hydroxypregnenolone (American Radiolabeled Chemicals, Inc., stock 1 μCi/μL): A 1:1 dilution of ^3H3-17α-hydroxypregnenolone in ethanol was prepared by combining 100 μL ^3H3-17α-hydroxypregnenolone+100 μL ethanol for one complete 96 well plate. For the reaction, 2 μL of the diluted ^3H3-17α-hydroxypregnenolone was added in each tube, i.e., 1 μCi/reaction. 4. Microsome Isolation Buffer: The microsome isolation buffer was prepared by combining 250 mM Sucrose, 5 mM EDTA, 10 mM Tris HCl, 4 mM DTT, and adjusting to pH 7.4. 5. TEG Buffer: The TEG buffer was prepared by combining 50 mM Tris HCl, 1 mM EDTA, and 20% Glycerol. 6. Rat Testicular Microsomes: Rat testis tissue was collected and disrupted with 30 strokes of a glass homogenizer on ice with 250 μL of microsome isolation buffer, followed by centrifugation at 10,000 g for 10 minutes at 4° C. The supernatant was collected and centrifuged at 100,000 g for 45 minutes at 4° C. The pellet was dissolved in TEG Buffer and the protein was quantified. The homogenized microsome samples were then frozen at −80° C. • 7. Yeast Microsomes which overexpress the human CYP17 enzyme were obtained from Premas Biotech, India.
Potassium phosphate buffer (470 μL) was prepared as described above and was added to each well of a deep well plate. The test compound was diluted using a TECAN liquid handler and 5 μL of diluted compound was transferred to each well (96 deep well/1 mL). A solution (25 μL) of 6.5 mM NADPH was added (final concentration of 325 μM in the assay). ^3H3-17α-hydroxypregnenolone (2 μL of the working stock) was added to each tube. The plates were then pre-incubated for 15 minutes at 37° C. Following the pre-incubation, either 5 μL rat testicular microsomes (150-160 μg) or 5 μL of yeast microsomes expressing human CYP17 (1.7 pmol), was added. Incubation was at 37° C. for 60 minutes in the presence of oxygen. The plates were then placed in ice and chloroform (500 μL) was added, mixed well and incubated at 4° C. for 20 minutes. The plates were then centrifuged at 1000 rpm for 15 minutes at 4° C.
A portion (300 μL) of the aqueous solution was collected and mixed with a 5% aqueous suspension of activated charcoal (300 μL). The plates were then incubated at 4° C. for 30 minutes, after which the plates were centrifuged at 1000 rpm for 15 minutes at 4° C. From this, 125 μL of the aqueous solution was collected and plated into a 96 well plate. Microscint™ 40 [125 μL, Perkin-Elmer; containing a mixture of a polymer based on alkylphenolethoxylate (20-40%), diethanolamine-phosphoric acid ester ammonium salt (10-20%), sodium dioctyl sulphosuccinate (2.5-10%), triethyl phosphate (2.5-10%), 3,6-dimethyl-4-octyne-3,6-diol (≦2.5%), a polymer based on nonylphenolethoxylate (≦2.5%), diisopropyl naphthalene isomers (40-60%), 2,5-diphenyloxazole (≦2.5%), and 9,10-dimethylanthracene] was added and mixed well. After 30 minutes of incubation, the samples were analyzed with a MicroBeta® Trilux microplate liquid scintillation counter and luminometer (Perkin-Elmer).

Row | SMILES | IC50 [1] [nM] | IC50 [2] [nM]
1 | CC(O)(c1ccncc1)c1cnc(-c2ccc(F)cc2)cn1 (stereo not shown) [Example 11, 1-(5-(4-Fluorophenyl)pyrazin-2-yl)-1-(pyridin-4-yl)ethanol] | 201 to 10000 | < 50
2 | CC(O)(c1ccncc1)c1ccc(-c2ccc(C#N)cc2)cn1 (stereo not shown) [Example 10, 4-(6-(1-hydroxy-1-(pyridin-4-yl)-ethyl)pyridin-3-yl)-benzonitrile] | 201 to 10000 | < 50
3 | CC(O)(c1ccncc1)c1nc(-c2ccc(F)cc2)no1 (single isomer, unassigned; (-)) [Example 35, (−)-1-(3-(4-fluorophenyl)-1,2,4-oxadiazol-5-yl)-1-(pyridin-4-yl)ethanol] | 201 to 10000 | < 50
4 | COc1ccc(-c2ccc(C(C)(O)c3ccncc3)nc2)cc1F (stereo not shown) [Example 6, 1-(5-(3-fluoro-4-methoxyphenyl)-pyridin-2-yl)-1-(pyridin-4-yl)ethanol] | 50 to 200 | < 50
5 | Cn1cc(-c2ncc(C(C)(O)c3ccncc3)o2)ccc1=O (stereo not shown) [Example 60, 5-(5-(1-hydroxy-1-(pyridin-4-yl)-ethyl)oxazol-2-yl)-1-methylpyridin-2(1H)-one] | 201 to 10000 | 201 to 10000
6 | CC(O)(c1ccncc1)c1nnc(-c2ccc(F)cc2)s1 (stereo not shown) [Example 61, 1-(5-(4-fluorophenyl)-1,3,4-thiadiazol-2-yl)-1-(pyridin-4-yl)ethanol] | 50 to 200 | < 50
7 | CC(N)(c1ccncc1)c1cnc(-c2ccc(F)cc2)s1 (stereo not shown) [Example 68, 1-(2-(4-Fluorophenyl)thiazol-5-yl)-1-(pyridin-4-yl)ethanamine] | 50 to 200 | < 50
8 | CC(O)(c1ccncc1)c1ccc(-c2ccc(F)cc2)cn1 (stereo not shown) [Example 5, 1-(5-(4-fluorophenyl)-pyridin-2-yl)-1-(pyridin-4-yl)ethanol] | 201 to 10000 | < 50
9 | CC(O)(c1ccncc1)c1cnc(-c2ccc(C#N)cc2)s1 (stereo not shown) [Example 56, 4-(5-(1-hydroxy-1-(pyridin-4-yl)ethyl)thiazol-2-yl)benzonitrile] | 50 to 200 | < 50
10 | Cn1cc(-c2ccc(C(C)(O)c3ccncc3)s2)ccc1=O (single isomer, unassigned; (+)) [Example 16, (+)-5-(5-(1-hydroxy-1-(pyridin-4-yl)ethyl)thiophen-2-yl)-1-methylpyridin-2(1H)-one] | 50 to 200 | 50 to 200
11 | CC(O)(c1ccncc1)c1cnc(-c2ccc(S(C)(=O)=O)cc2)s1 (stereo not shown) [Example 45, 1-(2-(4-(methylsulfonyl)-phenyl)thiazol-5-yl)-1-(pyridin-4-yl)ethanol] | 201 to 10000 | 50 to 200

Now from value to compound:

Row | IC50 [1] [nM] | IC50 [2] [nM] | SMILES
12 | < 50 | < 50 | CC(O)(c1ccncc1)c1cnc(-c2ccc(Cl)cc2)s1 (stereo not shown) [Example 28, 1-(2-(4-Chlorophenyl)thiazol-5-yl)-1-(pyridin-4-yl)ethanol]
13 | < 50 | < 50 | CCC(O)(c1ccncc1)c1cnc(-c2cn[nH]c2)s1 (single isomer, unassigned; (-)) [Example 19, (−)-1-[2-(1H-pyrazol-4-yl)-1,3-thiazol-5-yl]-1-pyridin-4-ylpropan-1-ol]
14 | < 50 | < 50 | CC(O)(c1ccncc1)c1cnc(-c2ccc(F)cc2F)s1 (stereo not shown) [Example 27, 1-[2-(2,4-Difluoro-phenyl)-thiazol-5-yl]-1-pyridin-4-yl-ethanol]
15 | < 50 | < 50 | CC(O)(c1ccncc1)c1cnc(-c2ccc(Cl)c(Cl)c2)s1 (stereo not shown) [Example 43, 1-(2-(3,4-dichlorophenyl)thiazol-5-yl)-1-(pyridin-4-yl)ethanol]
16 | < 50 | < 50 | CC(O)(c1ccncc1)c1cnc(-c2ccc(F)c(F)c2)s1 (stereo not shown) [Example 44, 1-(2-(3,4-difluorophenyl)thiazol-5-yl)-1-(pyridin-4-yl)ethanol]
17 | < 50 | < 50 | CC(O)(c1ccncc1)c1nc(-c2ccc(F)cc2)ns1 (stereo not shown) [Example 52, 1-(3-(4-fluorophenyl)-1,2,4-thiadiazol-5-yl)-1-(pyridin-4-yl)ethanol]
